The values that follow come from US11553718B2, “Mic reduction with lithium ions” (priority 2014, dated 2023).

Test [1] has as its system S. aureus strain DSMZ 346. The experiment in a line: MIC determination / bacterial count in CaCO3 slurry with or without lithium ions. Format: cell-based. The settings on record: for MIC ratio (MICwithout Li/MICLi): S. aureus; for MIC: Staphylococcus aureus, DSMZ346, S. aureus, read-out: MIC active/aequeous. The procedure:
(§1) When not otherwise indicated, the quoted bacterial counts (values are in cfu/plate) in the Tables here below are determined after 2 days following plate-out and incubation at 30° C. The counting method was as follows. The aqueous preparations were stirred well with a cotton swap (e.g. Applimed SA, No. 1102245); the excess aqueous preparation was removed by dipping it gently to the side of the aqueous preparation container, leaving approximately 200 mg of aqueous preparation on the swap. […] TSA plates were then incubated for 48 h at 30° C. Colony forming units (cfu) were then counted and reported as cfu/plate. Counts from 100 to 999 cfu per plate are reported as ≥100 cfu/plate. Counts of 1000 cfu and above per plate are reported as ≥1000 cfu/plate. Yeast and moulds were counted as described for bacteria with the following exceptions, a) Sabouraud Dextrose Agar (SDA) containing Chloramphenicol (e.g. heipha Dr. Miller GmbH, No. 1460030020) were used instead of TSA, b) SDA plates were incubated at 25° for 5 days and c) cfu were counted and reported after 48 h and 5 days of incubation. Yeast and moulds counts from 20 to 99 cfu per plate are reported as […]. Yeast and moulds counts of 100 cfu and above per plate are reported as >100 cfu/plate.
(§2) For determining the MIC, the tested microorganism, i.e. the strain of bacteria and/or strain of yeast and/or strain of mould, were freshly grown until the end of the logarithmic growth phase according to the requirements of the individual species to a density of approximately 10^7-10^9 cells/ml.
(§3) For example, fresh bacteria cultures of the bacteria E. coli, e.g. E. coli ATCC 11229, and S. aureus, e.g. S. aureus strains DSMZ 346, were prepared by inoculation of 3 ml liquid growth media (tryptic soy broth, e.g. Fluka Cat. No. 22092) from a stock culture and incubation for 16 to 20 h at 30° C. with agitation at 150 rotations per minutes (rpm) leading to a cell density of approximately 2×10^8 cells/ml. Fresh cultures of resistant bacteria, adapted to the conditions in biocide containing CaCO3 slurries, were prepared by inoculation of 50 g 75 wt.-% solid content CaCO3 slurry from a stock culture and incubated for 14 to 28 days at 30° C. without agitation.
(§4) Lithium ions were added to the aqueous preparation (e.g. CaCO3 slurry) by the addition of a water soluble lithium salt. For example to 50 g CaCO3 slurry with a solid content of 75% (w/w) 1.177 ml of a 74 g/Li2CO3 suspension was added and mixed well leading to a lithium ion concentration of 172 mM or 1205 ppm in the water phase. As another example to 50 g CaCO3 slurry with a solid content of 75 wt.-% (w/w) 0.04 ml of a 292 g/L Li3Citrate (2M) solution was added and mixed well leading to a lithium ion concentration of 19 mM or 135 ppm in the water phase.
(§5) The biocide to be tested was added to the aqueous preparation (e.g. CaCO3 slurry with or without lithium ions) in increasing concentrations starting from 0 ppm (without biocide). The concentrations ranged from concentrations higher than recommended by the supplier, to very low amounts (as low as 1 ppm or lower). Of each biocide concentration a 3 ml sample of aqueous preparation was combined with 20 μl fresh bacterial culture.
(§6) All samples were incubated at 30° C. for 24 h. After incubation colony forming units (cfu) per plate (cfu/plate) were determined as described above under bacterial count.
(§7) The MIC for bacteria is defined as the lowest concentration of biocide in the presence or absence of lithium ion amongst all samples tested, where the bacterial concentration dropped below 100 cfu/plate. The MIC for yeast and mould is defined as the lowest concentration of biocide in the presence or absence of lithium ion amongst all samples tested, where the microbial concentration dropped below 20 cfu/plate.

In test [2] the test system is E. coli strain ATCC11229. The description is as above. It is filed as cell-based. The settings on record: for MIC ratio (MICwithout Li/MICLi): E. coli; for MIC: Escherichia coli, ATCC11229, read-out: MIC active/aequeous, E. coli. The procedure:
as §1, §2, §3, §4, §5, §6, §7

Test [3] has as its system rOPP strain. The experiment in a line: MIC determination in CaCO3 slurry with or without lithium ions. It is filed as cell-based, Pseudomonas mendocina. As to conditions: Li2CO3; for MIC: Ectopseudomonas mendocina, read-out: MIC active/aequeous, rOPP; for MIC ratio (MICwithout Li/MICLi): rOPP. The protocol: as §1, §2, §3, §4, §5, §6, §7
The test system of test [4] is S. aureus. The experiment in a line: Curative MIC (bacteria added before biocide and lithium). It is filed as cell-based. As to conditions: Curative treatment, Li^+ 329 mM (2305 ppm), Li2CO3.
For test [5], the system named is bacterial strain rOmyAK. Put plainly: microbe, parasite or virus in culture. The settings on record: for bacterial count: rOmy AK; for MIC ratio (MICwithout Li/MICLi) / MIC active/aequeous: rOmyAK. It is filed as cell-based, Pseudomonas mendocina. The procedure:
as §1, §2, §3, §4, §5, §6, §7

The test system of test [6] is rGDA/IT (rGDA-IT) strain. Put plainly: MIC determination in CaCO3 slurry with or without lithium ions. The settings on record: Li^+ 197 mM (1380 ppm), Li2CO3. Format: cell-based, Pseudomonas mendocina. The procedure: as §1, §2, §3, §4, §5, §6, §7

Where “and” joins values, the source holds several entries; their conditions need not be identical. Equal entries are not always repeated. Where two headings read alike, the source gives them in different places.

On to `Oc1ccccc1-c1ccccc1` [2-Phenylphenol (OPP), 2-Phenylphenol], for which the “MIC ratio (MICwithout Li/MICLi)” value is listed as 2 in test [1] (Li^+ 53 mM (370 ppm), Li2CO3); 10 in test [1] (Li^+ 67 mM (470 ppm), LiOH); 1.5 in test [2] (Li^+ 197 mM (1380 ppm), Li2CO3); 2 in test [3] (Li^+ 172 mM (1205 ppm)); more than 4.5 in test [3] (Li^+ 197 mM (1380 ppm)); more than 9 in test [3] (Li^+ 329 mM (2305 ppm)). For the same compound, the MIC in test [1] (Li^+ 53 mM (370 ppm), Li2CO3) is 880 µM and 150 µg/mL; in test [1] (Li^+ 67 mM (470 ppm), LiOH) it was 180 µM and 30 µg/mL; in test [1] (no Li^+), 1760 µM and 300 µg/mL; in test [2] (Li^+ 197 mM (1380 ppm), Li2CO3), 2080 µM and 354 µg/mL; in test [2] (no Li^+) it was 3120 µM and 531 µg/mL; in test [3] (Li^+ 172 mM (1205 ppm)) it was 260 µM and 45 µg/mL. The MIC was 2080 µM and 354 µg/mL in test [3] (Li^+ 197 mM (1380 ppm)); 1040 µM and 177 µg/mL in test [3] (Li^+ 329 mM (2305 ppm)).

For the compound `O=c1[nH]sc2ccccc12` [Benzisothiazolinone (BIT), Benzisothiazolinone], the “MIC ratio (MICwithout Li/MICLi)” value is more than 2 in test [1] (Li^+ 423 mM (2964 ppm), Li2CO3) and 2 in test [4].

Regarding `Cn1sccc1=O` [MIT, 2-Methyl-2H-isothiazolin-3-one], the “MIC ratio (MICwithout Li/MICLi)” value in test [1] (Li^+ 329 mM (2305 ppm), Li2CO3) is recorded as more than 5; in test [2] (Li^+ 197 mM (1380 ppm), Li2CO3), more than 2.5; in test [5] (Li^+ 197 mM (1380 ppm), Li2CO3), 1; in test [5] (Li^+ 329 mM (2305 ppm), Li2CO3), 3; in test [5] (Li^+ 423 mM (2964 ppm), Li2CO3) it was 6; in test [6], 1.67. Also, the bacterial count in test [5] (18 ppm MIT, 329 mM Li^+) is listed as not below 100 cfu/plate; in test [5] (18 ppm MIT, no Li^+), not below 1000 cfu/plate; in test [5] (35 ppm MIT, 329 mM Li^+), 68 cfu/plate; in test [5] (35 ppm MIT, no Li^+) it was not below 100 cfu/plate; in test [5] (106 ppm MIT, 329 mM Li^+) it was 0 cfu/plate; in test [5] (106 ppm MIT, no Li^+), 0 cfu/plate. Moreover, the MIC active/aequeous is on record as 35 ppm in test [5] (Li^+ 329 mM (2305 ppm), Li2CO3) and 106 ppm in test [5] (no Li^+).
